This test in a line: Example 2: diuretic induced hemo-concentration patient, transthoracic echocardiography and body weight. The format is in vivo, human. On the procedure:
A person weighing 180 pounds, with a history of a prior myocardial infarction, was hospitalized with fatigue, peripheral edema and difficulty in breathing. […] Diuretic therapy effected by administering IV bolus doses of 150 mg furosemide every 12 hours was started. Their body weight measurement after 48 hours of furosemide treatment was 172 pounds.
The patient was continued on furosemide and a 15% solution of purified poloxamer 188 in citrate buffered saline was administered at a dose of 250 mg/kg as an IV infusion over a period of 1 hour. Twenty-four hours later, their body weight was 168 pounds.

As for `NS(=O)(=O)c1cc(C(=O)O)c(NCc2ccco2)cc1Cl` [furosemide], the body weight (after 48 hours of furosemide 150 mg IV bolus every 12 hours, 180 pounds at admission) is on record as 172 pounds. For the same compound, where the note is “after 48 hours of furosemide alone, 30% at admission”, the ejection fraction was determined as 29%.

(Values after US20160235781A1, “DIURETIC INDUCED ALTERATIONS OF PLASMA VOLUME” (MAST THERAPEUTICS, INC., priority 2013, published 2016).)
